How the values were obtained:
[1] = tested on: Staphylococcus aureus 33592 (MRSA); assay: ASTM E2315 suspension time-kill procedure; format: cell-based; details: contact time 2 hours; for CFU/mL / % Reduction / Log10 reduction: S. aureus 33592; for % Reduction / Log10 reduction: vs time zero control
Protocol: (§1) Efficacy of these substances, alone and in combination, was tested against two strains of bacteria using the ASTM E2315 test method.
(2) Staphylococcus aureus 33592 (MRSA): This is a Gram-positive, coccus-shaped aerobe that is resistant to methicillin, a penicillin derivative. Rapid reproduction and resistance to antibiotics can make S. aureus infections particularly difficult to treat. MRSA bacteria are resistant to drying and can survive on surfaces and fabrics for an extended period of time.
(§2) ASTM E2315 is a quantitative test method designed to assess changes in the populations of a microorganism in an antimicrobial liquid suspension. The method can be conducted using contact times ranging from 10 seconds to 24 hours. The test method uses non-antimicrobial agents as controls to establish baselines for microbial reductions.
(§3) Test microorganisms were prepared in liquid culture medium. Suspensions of test microorganisms were standardized as needed by dilution in a buffered saline solution. Test and control substances were dispensed in identical volumes to sterile vessels.
(§4) Independently, test and control substances were inoculated with each test microorganism, then mixed and incubated. Control substances were immediately harvested and used to represent the concentration present at the start of the test.
(§5) At the conclusion of the contact time, a volume of liquid test solution was harvested and chemically neutralized. Test microorganisms were spun down and the cell pellet was resuspended in phosphate buffered saline (PBS) prior to inoculation of the test systems. 10 mL volumes of Dey/Engley neutralizer broth supplemented with 5% magnesium chloride and 35% polysorbate 80 were used for chemical neutralization. After chemical neutralization, test systems were filtered using a filtration manifold to recover surviving microorganisms.
(§6) Dilutions of neutralized test solution were assayed using appropriate growth media to determine surviving microorganism levels at each respective contact time. Reductions of microorganisms were calculated by comparing initial microbial concentrations to final microbial concentrations. The limit of detection for the assay was 10 CFU/mL.
(§7) Percent reduction of bacterial population was calculated according to the following equation, where A=number of viable test microorganisms in the test substance after the contact time and B=number of viable test microorganisms in the control substance immediately after inoculation. Log10 reduction was also calculated.
(§8) The experimental procedure of Example 1 was followed with the exception of substitutions of some antibiotics. Cefuroxime (a second generation cephalosporin) and/or ceftazidime (a third generation cephalosporin active against P. aeruginosa) were used to replace cefazolin.

[2] = tested on: Pseudomonas aeruginosa 9027; assay: ASTM E2315 suspension time-kill procedure; format: cell-based; details: P. aeruginosa 9027, contact time 2 hours; for % Reduction / Log10 reduction: vs time zero control
Protocol: as §1
(1) Pseudomonas aeruginosa 9027: This is a Gram-negative, rod-shaped microorganism with a single flagellum. P. aeruginosa grows optimally under aerobic conditions but can use various electron acceptors to respire anaerobically as needed. This organism is an opportunistic pathogen with the ability to form resilient biofilms in human tissues under anaerobic conditions.
as §2, §3, §4, §5, §6, §7, §8

[3] = Example 2, time zero control 3.35 × 10^7 CFU/mL

For `Cc1nnc(SCC2=C(C(=O)O)N3C(=O)[C@@H](NC(=O)Cn4cnnn4)[C@H]3SC2)s1` [Test 1, Cefazolin], the CFU/mL ([1]; Example 1, time zero control 2.85 × 10^6 CFU/mL, ambient 25° C.) was 1.44 × 10^5 CFU/mL, the “% Reduction” value ([1]; Example 1) was 94.96% and the Log10 reduction ([1]; Example 1) was 1.30.
With `CO/N=C(\C(=O)N[C@@H]1C(=O)N2C(C(=O)O)=C(COC(N)=O)CS[C@H]12)c1ccco1` [Test 8, Cefuroxime] the CFU/mL ([1]; Example 2, time zero control 1.75 × 10^6 CFU/mL) was 1.50 × 10^6 CFU/mL, the “% Reduction” value ([1]; Example 2) was 14.29% and the Log10 reduction ([1]; Example 2) was 0.07. For the same compound, the “antibacterial effect / interaction of the antibiotics, in words” value (“antibacterial effect / interaction” below) ([1]; S. aureus 33592 (MRSA)) was “less activity against MRSA than the first generation cephalosporin, cefazolin”.
With `CO/N=C(\C(=O)N[C@@H]1C(=O)N2C(C(=O)O)=C(COC(N)=O)CS[C@H]12)c1ccco1` [Test 12, Cefuroxime] the CFU/mL [2, 3] was 2.00 × 10^5 CFU/mL, the “% Reduction” value ([2]; Example 2) was 99.44% and the Log10 reduction ([2]; Example 2) was 2.25. For the same compound, the “antibacterial effect / interaction” value [2] was “bactericidal”.
With Polymyxin B [Test 5] the CFU/mL ([2]; Example 1, time zero control 1.80 × 10^6 CFU/mL, limit of detection 10 CFU/mL) was <1.00 × 10^1 CFU/mL, the “% Reduction” value ([2]; Example 1) was greater than 99.9996% and the Log10 reduction ([2]; Example 1) was greater than 5.45. For the same compound, the “antibacterial effect / interaction” value [2] was “essentially complete elimination”.
For Polymyxin B [Test 11], the CFU/mL [2, 3] was 1.00 × 10^3 CFU/mL, the “% Reduction” value ([2]; Example 2) was 99.997% and the Log10 reduction ([2]; Example 2) was 4.55.

Source: patent publication US10682360B2, “Antimicrobial formulations and applications thereof” (priority 2014, dated 2020)
